# According to PubChem BioAssay AID2060502 (Molecular Pharmacology Branch, DTP, NCI, 2025):
# Tested on: 885724-159-R-J1-PDC complex spheroid viability
# Assay: Anticancer human tumor 885724-159-R-J1-PDC patient-derived pancreatic adenocarcinoma cell line growth inhibition [GQUAD]
# Settings: for IC50: curve of first compound; for viability, T/C: stronger effect = lower value
# Summary of the method: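 Viability of tumor cells grown as complex spheroids with endothelial and stromal cells, exposed to drug combinations. Top concentration at or near clinical Cmax (else 10 microM), diluted in half-log increments.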
# [1] = second compound 0.0316 µM, first compound 0.000999 µM
# [2] = second compound 0.0316 µM, first compound 0.00316 µM
# [3] = second compound 0.0316 µM, first compound 0.00999 µM
# [4] = second compound 0.0316 µM, first compound 0.0316 µM
# [5] = second compound 0.0316 µM, first compound 0.0999 µM
# [6] = second compound 0.0316 µM, first compound 0.316 µM
# [7] = second compound 0.1 µM, first compound 0.000999 µM
# [8] = second compound 0.1 µM, first compound 0.00316 µM
# [9] = second compound 0.1 µM, first compound 0.00999 µM
# [10] = second compound 0.1 µM, first compound 0.0316 µM
# [11] = second compound 0.1 µM, first compound 0.0999 µM
# [12] = second compound 0.1 µM, first compound 0.316 µM
# [13] = second compound 0.316 µM, first compound 0.000999 µM
# [14] = second compound 0.316 µM, first compound 0.00316 µM
# [15] = second compound 0.316 µM, first compound 0.00999 µM
# [16] = second compound 0.316 µM, first compound 0.0316 µM
# [17] = second compound 0.316 µM, first compound 0.0999 µM
# [18] = second compound 0.316 µM, first compound 0.316 µM
# [19] = second compound 1 µM, first compound 0.000999 µM
# [20] = second compound 1 µM, first compound 0.00316 µM
# [21] = second compound 1 µM, first compound 0.00999 µM
# [22] = second compound 1 µM, first compound 0.0316 µM
# [23] = second compound 1 µM, first compound 0.0999 µM
# [24] = second compound 1 µM, first compound 0.316 µM
# [25] = second compound 3.16 µM, first compound 0.000999 µM
# [26] = second compound 3.16 µM, first compound 0.00316 µM
# [27] = second compound 3.16 µM, first compound 0.00999 µM
# [28] = second compound 3.16 µM, first compound 0.0316 µM
# [29] = second compound 3.16 µM, first compound 0.0999 µM
# [30] = second compound 3.16 µM, first compound 0.316 µM
# [31] = second compound 10 µM, first compound 0.000999 µM
# [32] = second compound 10 µM, first compound 0.00316 µM
# [33] = second compound 10 µM, first compound 0.00999 µM
# [34] = second compound 10 µM, first compound 0.0316 µM
# [35] = second compound 10 µM, first compound 0.0999 µM
# [36] = second compound 10 µM, first compound 0.316 µM
# [37] = second compound 0.0316 µM, first compound 0.1 µM
# [38] = second compound 0.0316 µM, first compound 1 µM
# [39] = second compound 0.0316 µM, first compound 3.16 µM
# [40] = second compound 0.0316 µM, first compound 10 µM
# [41] = second compound 0.1 µM, first compound 0.1 µM
# [42] = second compound 0.1 µM, first compound 1 µM
# [43] = second compound 0.1 µM, first compound 3.16 µM
# [44] = second compound 0.1 µM, first compound 10 µM
# [45] = second compound 0.316 µM, first compound 0.1 µM
# [46] = second compound 0.316 µM, first compound 1 µM
# [47] = second compound 0.316 µM, first compound 3.16 µM
# [48] = second compound 0.316 µM, first compound 10 µM
# [49] = second compound 1 µM, first compound 0.1 µM
# [50] = second compound 1 µM, first compound 1 µM
# [51] = second compound 1 µM, first compound 3.16 µM
# [52] = second compound 1 µM, first compound 10 µM
# [53] = second compound 3.16 µM, first compound 0.1 µM
# [54] = second compound 3.16 µM, first compound 1 µM
# [55] = second compound 3.16 µM, first compound 3.16 µM
# [56] = second compound 3.16 µM, first compound 10 µM
# [57] = second compound 10 µM, first compound 0.1 µM
# [58] = second compound 10 µM, first compound 1 µM
# [59] = second compound 10 µM, first compound 3.16 µM
# [60] = second compound 10 µM, first compound 10 µM
# 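Also: spheroids exposed to agents for seven days before readout.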
# 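For viability, T/C in this document: percent of vehicle control viability where 100% = DMSO wells.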
structure (smiles),measurement,setting,value
CCc1c2c(nc3ccc(O)cc13)-c1cc3c(c(=O)n1C2)COC(=O)[C@]3(O)CC + Cc1[nH]c2ccc(F)cc2c1-c1nc2c3cccnc3c3ncccc3c2[nH]1,IC50,second compound 0.0316 µM,114 nM
same,IC50,second compound 0.1 µM,110 nM
same,IC50,second compound 0.316 µM,121 nM
same,IC50,second compound 1 µM,125 nM
same,IC50,second compound 3.16 µM,< 0.999 nM
same,IC50,second compound 10 µM,62.4 nM
same,"viability, T/C",[1],96.4%
same,"viability, T/C",[2],83.6%
same,"viability, T/C",[3],83.2%
same,"viability, T/C",[4],73.9%
same,"viability, T/C",[5],55.5%
same,"viability, T/C",[6],18.4%
same,"viability, T/C",[7],104%
same,"viability, T/C",[8],90.5%
same,"viability, T/C",[9],76.8%
same,"viability, T/C",[10],70.4%
same,"viability, T/C",[11],60.9%
same,"viability, T/C",[12],21.3%
same,"viability, T/C",[13],85.8%
same,"viability, T/C",[14],86%
same,"viability, T/C",[15],73.3%
same,"viability, T/C",[16],69.5%
same,"viability, T/C",[17],59.8%
same,"viability, T/C",[18],21.5%
same,"viability, T/C",[19],78%
same,"viability, T/C",[20],61.1%
same,"viability, T/C",[21],57.6%
same,"viability, T/C",[22],60.6%
same,"viability, T/C",[23],58.7%
same,"viability, T/C",[24],18.9%
same,"viability, T/C",[25],43%
same,"viability, T/C",[26],28.7%
same,"viability, T/C",[27],28.4%
same,"viability, T/C",[28],21.3%
same,"viability, T/C",[29],14.1%
same,"viability, T/C",[30],7.27%
same,"viability, T/C",[31],63%
same,"viability, T/C",[32],58.8%
same,"viability, T/C",[33],46.8%
same,"viability, T/C",[34],60.3%
same,"viability, T/C",[35],45.5%
same,"viability, T/C",[36],21.4%
Cn1ncnc1[C@H]1c2n[nH]c(=O)c3cc(F)cc(c23)N[C@@H]1c1ccc(F)cc1 + Cc1cnc(CNC(=O)c2c(=O)c3ccc(N4CCCN(C)CC4)nc3n3c2sc2ccccc23)cn1,IC50,second compound 0.0316 µM,> 316 nM
same,IC50,second compound 0.1 µM,> 316 nM
same,IC50,second compound 0.316 µM,> 316 nM
same,IC50,second compound 1 µM,> 316 nM
same,IC50,second compound 3.16 µM,> 316 nM
same,IC50,second compound 10 µM,> 316 nM
same,"viability, T/C",[1],90.3%
same,"viability, T/C",[2],107%
same,"viability, T/C",[3],96.3%
same,"viability, T/C",[4],108%
same,"viability, T/C",[5],90.3%
same,"viability, T/C",[6],92.7%
same,"viability, T/C",[7],117%
same,"viability, T/C",[8],115%
same,"viability, T/C",[9],97.1%
same,"viability, T/C",[10],100%
same,"viability, T/C",[11],98.8%
same,"viability, T/C",[12],92.2%
same,"viability, T/C",[13],90.1%
same,"viability, T/C",[14],94.5%
same,"viability, T/C",[15],104%
same,"viability, T/C",[16],96.3%
same,"viability, T/C",[17],96.6%
same,"viability, T/C",[18],98.7%
same,"viability, T/C",[19],86.8%
same,"viability, T/C",[20],85.6%
same,"viability, T/C",[21],82.3%
same,"viability, T/C",[22],79.2%
same,"viability, T/C",[23],87.4%
same,"viability, T/C",[24],84.2%
same,"viability, T/C",[25],79.8%
same,"viability, T/C",[26],76.1%
same,"viability, T/C",[27],78.9%
same,"viability, T/C",[28],76.1%
same,"viability, T/C",[29],81%
same,"viability, T/C",[30],72.6%
same,"viability, T/C",[31],82.4%
same,"viability, T/C",[32],88.2%
same,"viability, T/C",[33],83%
same,"viability, T/C",[34],89.4%
same,"viability, T/C",[35],105%
same,"viability, T/C",[36],94.6%
O=C(NO)c1cnc(N2CCN(S(=O)(=O)c3ccc4ccccc4c3)CC2)nc1 + Cc1cnc(CNC(=O)c2c(=O)c3ccc(N4CCCN(C)CC4)nc3n3c2sc2ccccc23)cn1,IC50,second compound 0.0316 µM,549 nM
same,IC50,second compound 0.1 µM,450 nM
same,IC50,second compound 0.316 µM,437 nM
same,IC50,second compound 1 µM,434 nM
same,IC50,second compound 3.16 µM,182 nM
same,IC50,second compound 10 µM,183 nM
same,"viability, T/C",[4],77.4%
same,"viability, T/C",[37],83.3%
same,"viability, T/C",[6],65.4%
same,"viability, T/C",[38],31.2%
same,"viability, T/C",[39],13.7%
same,"viability, T/C",[40],0.25%
same,"viability, T/C",[10],117%
same,"viability, T/C",[41],79.7%
same,"viability, T/C",[12],56.6%
same,"viability, T/C",[42],40%
same,"viability, T/C",[43],10.4%
same,"viability, T/C",[44],0.28%
same,"viability, T/C",[16],102%
same,"viability, T/C",[45],78.9%
same,"viability, T/C",[18],63.3%
same,"viability, T/C",[46],26.1%
same,"viability, T/C",[47],12.7%
same,"viability, T/C",[48],0.32%
same,"viability, T/C",[22],80.5%
same,"viability, T/C",[49],70.4%
same,"viability, T/C",[24],60%
same,"viability, T/C",[50],28.4%
same,"viability, T/C",[51],9.39%
same,"viability, T/C",[52],0.18%
same,"viability, T/C",[28],80.6%
same,"viability, T/C",[53],59.6%
same,"viability, T/C",[30],39.8%
same,"viability, T/C",[54],23.7%
same,"viability, T/C",[55],0.23%
same,"viability, T/C",[56],0.18%
same,"viability, T/C",[34],60.2%
same,"viability, T/C",[57],58.5%
same,"viability, T/C",[36],42%
same,"viability, T/C",[58],20.5%
same,"viability, T/C",[59],0.26%
same,"viability, T/C",[60],0.22%
Cc1cccc(N(C)C(=O)C2C(O)CCN2c2nc(C)cc(C(F)(F)F)c2C#N)c1 (stereo not drawn) + CN(C)c1ccc(Nc2c3ccc(NC(=O)CCN4CCCC4)cc3nc3cc(NC(=O)CCN4CCCC4)ccc23)cc1,IC50,second compound 0.0316 µM,> 10000 nM
same,IC50,second compound 0.1 µM,> 10000 nM
same,IC50,second compound 0.316 µM,> 10000 nM
same,IC50,second compound 1 µM,> 10000 nM
same,IC50,second compound 3.16 µM,> 10000 nM
same,IC50,second compound 10 µM,> 10000 nM
same,"viability, T/C",[4],95.6%
same,"viability, T/C",[37],98%
same,"viability, T/C",[6],105%
same,"viability, T/C",[38],92.7%
same,"viability, T/C",[39],108%
same,"viability, T/C",[40],97.7%
same,"viability, T/C",[10],90.3%
same,"viability, T/C",[41],103%
same,"viability, T/C",[12],104%
same,"viability, T/C",[42],90.4%
same,"viability, T/C",[43],90%
same,"viability, T/C",[44],101%
same,"viability, T/C",[16],108%
same,"viability, T/C",[45],86.2%
same,"viability, T/C",[18],88.3%
same,"viability, T/C",[46],87.1%
same,"viability, T/C",[47],100%
same,"viability, T/C",[48],102%
same,"viability, T/C",[22],86%
same,"viability, T/C",[49],80.5%
same,"viability, T/C",[24],83.3%
same,"viability, T/C",[50],82.4%
same,"viability, T/C",[51],89.7%
same,"viability, T/C",[52],83%
same,"viability, T/C",[28],79.8%
same,"viability, T/C",[53],68.8%
same,"viability, T/C",[30],92.3%
same,"viability, T/C",[54],81%
same,"viability, T/C",[55],86.1%
same,"viability, T/C",[56],86.5%
same,"viability, T/C",[34],77%
same,"viability, T/C",[57],79.3%
same,"viability, T/C",[36],75.6%
same,"viability, T/C",[58],80.2%
same,"viability, T/C",[59],78.2%
same,"viability, T/C",[60],56.5%
